The structures appear in SMILES notation.

Targets include FGFR1 (Homo sapiens, UniProt P11362); FGFR2 (Homo sapiens, UniProt P21802); Erk3 (Homo sapiens, UniProt Q16659).
Common to all, as to conditions: binder
Another assay has as its target T1, BMPR2 (Homo sapiens, UniProt Q13873).
T1 sequence (Q13873 1-1038): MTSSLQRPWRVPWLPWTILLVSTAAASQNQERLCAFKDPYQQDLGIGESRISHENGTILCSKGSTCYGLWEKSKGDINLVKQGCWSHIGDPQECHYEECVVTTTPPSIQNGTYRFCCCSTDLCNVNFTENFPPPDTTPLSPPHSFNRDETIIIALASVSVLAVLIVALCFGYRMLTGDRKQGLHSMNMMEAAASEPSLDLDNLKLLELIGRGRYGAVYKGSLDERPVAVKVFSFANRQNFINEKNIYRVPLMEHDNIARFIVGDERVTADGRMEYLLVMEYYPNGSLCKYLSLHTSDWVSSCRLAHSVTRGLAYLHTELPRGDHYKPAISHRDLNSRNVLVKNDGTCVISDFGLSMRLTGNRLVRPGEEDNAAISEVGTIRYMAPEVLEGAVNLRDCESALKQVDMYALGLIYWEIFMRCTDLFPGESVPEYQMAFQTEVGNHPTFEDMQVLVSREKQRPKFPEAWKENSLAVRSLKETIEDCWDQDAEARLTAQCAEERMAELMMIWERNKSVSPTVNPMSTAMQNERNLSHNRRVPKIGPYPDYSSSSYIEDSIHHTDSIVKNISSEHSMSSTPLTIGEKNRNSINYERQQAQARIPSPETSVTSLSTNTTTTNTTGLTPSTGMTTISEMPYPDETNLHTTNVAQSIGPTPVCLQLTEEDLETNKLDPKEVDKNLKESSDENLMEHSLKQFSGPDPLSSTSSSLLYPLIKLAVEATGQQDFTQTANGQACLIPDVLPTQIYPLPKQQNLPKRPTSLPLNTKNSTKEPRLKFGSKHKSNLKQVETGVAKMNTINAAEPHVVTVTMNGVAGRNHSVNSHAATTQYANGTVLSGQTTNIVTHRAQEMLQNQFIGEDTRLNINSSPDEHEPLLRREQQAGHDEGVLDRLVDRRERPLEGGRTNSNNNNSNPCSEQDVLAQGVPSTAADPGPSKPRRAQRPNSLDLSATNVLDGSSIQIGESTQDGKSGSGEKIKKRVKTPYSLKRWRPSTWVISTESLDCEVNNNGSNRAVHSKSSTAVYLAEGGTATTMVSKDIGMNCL

In another assay the target is T2, MARK4 (Homo sapiens, UniProt Q96L34).
T2 sequence (Q96L34 1-752): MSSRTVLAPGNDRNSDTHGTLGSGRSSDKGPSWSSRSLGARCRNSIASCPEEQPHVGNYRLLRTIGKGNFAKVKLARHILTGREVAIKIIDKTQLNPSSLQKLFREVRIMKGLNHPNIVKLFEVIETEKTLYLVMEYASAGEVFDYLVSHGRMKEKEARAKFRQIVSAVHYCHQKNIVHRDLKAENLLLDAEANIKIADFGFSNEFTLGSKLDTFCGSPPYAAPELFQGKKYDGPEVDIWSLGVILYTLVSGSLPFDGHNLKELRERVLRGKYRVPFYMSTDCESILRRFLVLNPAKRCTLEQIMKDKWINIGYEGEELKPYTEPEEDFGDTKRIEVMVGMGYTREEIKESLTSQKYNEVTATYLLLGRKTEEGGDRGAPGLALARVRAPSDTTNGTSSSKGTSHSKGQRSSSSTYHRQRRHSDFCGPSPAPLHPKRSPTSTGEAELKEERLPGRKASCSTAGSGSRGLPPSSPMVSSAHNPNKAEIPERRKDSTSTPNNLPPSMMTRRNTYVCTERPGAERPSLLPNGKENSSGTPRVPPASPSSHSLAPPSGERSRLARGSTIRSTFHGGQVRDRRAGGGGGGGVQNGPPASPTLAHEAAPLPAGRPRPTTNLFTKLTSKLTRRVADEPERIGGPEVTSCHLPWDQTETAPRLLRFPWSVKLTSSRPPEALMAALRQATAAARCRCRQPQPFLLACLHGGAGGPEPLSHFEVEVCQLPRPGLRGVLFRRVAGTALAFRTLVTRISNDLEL

The target in the next assay is T3, MAP2K6 (Homo sapiens, UniProt P52564).
T3 sequence (P52564 1-334): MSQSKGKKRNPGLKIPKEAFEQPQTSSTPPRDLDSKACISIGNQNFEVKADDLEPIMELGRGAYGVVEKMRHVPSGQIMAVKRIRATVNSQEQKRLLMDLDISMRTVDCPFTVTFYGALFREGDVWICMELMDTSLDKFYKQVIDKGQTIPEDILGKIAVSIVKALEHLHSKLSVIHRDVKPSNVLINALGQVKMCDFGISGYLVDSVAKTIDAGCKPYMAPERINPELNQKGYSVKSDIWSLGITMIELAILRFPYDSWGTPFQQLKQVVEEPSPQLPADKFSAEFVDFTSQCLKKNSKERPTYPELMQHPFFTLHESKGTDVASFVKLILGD

The target of the next assay is T4, MST1 (Homo sapiens, UniProt Q13043).
T4 sequence (Q13043 1-487): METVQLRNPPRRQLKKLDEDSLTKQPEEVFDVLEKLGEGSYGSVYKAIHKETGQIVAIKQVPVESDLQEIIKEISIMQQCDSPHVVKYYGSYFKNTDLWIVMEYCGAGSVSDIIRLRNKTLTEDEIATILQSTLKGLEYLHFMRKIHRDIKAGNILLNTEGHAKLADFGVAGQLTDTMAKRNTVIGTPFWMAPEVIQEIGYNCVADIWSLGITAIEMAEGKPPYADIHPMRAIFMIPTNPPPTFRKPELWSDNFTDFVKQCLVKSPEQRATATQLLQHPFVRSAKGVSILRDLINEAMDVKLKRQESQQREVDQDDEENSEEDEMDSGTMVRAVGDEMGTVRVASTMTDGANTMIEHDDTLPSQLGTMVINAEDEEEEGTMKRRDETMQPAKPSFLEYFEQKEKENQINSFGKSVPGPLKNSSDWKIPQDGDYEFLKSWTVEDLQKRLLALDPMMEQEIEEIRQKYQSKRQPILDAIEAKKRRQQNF

FGFR2, sequence (P21802 whole entry): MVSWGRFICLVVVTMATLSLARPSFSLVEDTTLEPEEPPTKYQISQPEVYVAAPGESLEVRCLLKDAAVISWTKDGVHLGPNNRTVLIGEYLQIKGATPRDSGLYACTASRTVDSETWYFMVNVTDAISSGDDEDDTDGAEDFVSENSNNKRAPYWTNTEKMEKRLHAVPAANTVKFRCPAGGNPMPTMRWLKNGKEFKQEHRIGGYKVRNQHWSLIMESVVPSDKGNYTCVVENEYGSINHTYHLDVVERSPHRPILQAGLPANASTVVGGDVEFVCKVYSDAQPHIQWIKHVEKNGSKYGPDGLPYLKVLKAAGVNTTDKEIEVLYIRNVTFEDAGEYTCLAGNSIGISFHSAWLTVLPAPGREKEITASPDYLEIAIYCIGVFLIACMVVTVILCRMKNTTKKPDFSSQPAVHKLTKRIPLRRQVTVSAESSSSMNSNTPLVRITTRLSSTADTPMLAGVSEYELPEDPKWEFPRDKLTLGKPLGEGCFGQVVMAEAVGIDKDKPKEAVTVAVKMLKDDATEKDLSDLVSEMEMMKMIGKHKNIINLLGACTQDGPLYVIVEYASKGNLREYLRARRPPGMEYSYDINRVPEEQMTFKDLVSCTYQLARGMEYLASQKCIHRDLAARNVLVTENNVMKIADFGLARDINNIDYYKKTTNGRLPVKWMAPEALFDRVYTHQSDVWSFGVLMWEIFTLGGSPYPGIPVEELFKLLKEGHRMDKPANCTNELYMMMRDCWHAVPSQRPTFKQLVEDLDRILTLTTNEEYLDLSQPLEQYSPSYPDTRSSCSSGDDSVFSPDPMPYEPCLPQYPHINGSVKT
FGFR1, sequence (P11362 whole entry): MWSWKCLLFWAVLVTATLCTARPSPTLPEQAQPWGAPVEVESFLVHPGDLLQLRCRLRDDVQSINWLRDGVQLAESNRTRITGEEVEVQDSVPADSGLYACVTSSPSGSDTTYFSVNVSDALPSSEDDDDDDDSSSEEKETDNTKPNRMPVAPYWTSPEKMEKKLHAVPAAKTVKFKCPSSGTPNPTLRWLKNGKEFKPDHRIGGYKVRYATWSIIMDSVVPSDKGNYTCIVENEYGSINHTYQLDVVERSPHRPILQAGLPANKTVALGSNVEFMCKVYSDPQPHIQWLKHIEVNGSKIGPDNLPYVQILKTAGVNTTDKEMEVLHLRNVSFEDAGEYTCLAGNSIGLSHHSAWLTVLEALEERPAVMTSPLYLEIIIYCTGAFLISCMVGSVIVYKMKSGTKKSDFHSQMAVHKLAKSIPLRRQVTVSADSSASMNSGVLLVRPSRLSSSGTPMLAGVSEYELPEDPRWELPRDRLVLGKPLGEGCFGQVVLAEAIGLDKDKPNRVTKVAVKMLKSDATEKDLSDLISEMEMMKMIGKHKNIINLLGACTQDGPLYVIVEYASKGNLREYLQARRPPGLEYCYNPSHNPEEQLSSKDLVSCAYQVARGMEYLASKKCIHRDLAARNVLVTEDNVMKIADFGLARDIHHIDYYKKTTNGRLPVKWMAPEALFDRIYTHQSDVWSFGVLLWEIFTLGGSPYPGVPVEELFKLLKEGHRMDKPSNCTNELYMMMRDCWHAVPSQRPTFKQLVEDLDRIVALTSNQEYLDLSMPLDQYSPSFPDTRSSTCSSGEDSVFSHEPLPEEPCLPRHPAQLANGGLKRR
Erk3, sequence (Q16659 whole entry): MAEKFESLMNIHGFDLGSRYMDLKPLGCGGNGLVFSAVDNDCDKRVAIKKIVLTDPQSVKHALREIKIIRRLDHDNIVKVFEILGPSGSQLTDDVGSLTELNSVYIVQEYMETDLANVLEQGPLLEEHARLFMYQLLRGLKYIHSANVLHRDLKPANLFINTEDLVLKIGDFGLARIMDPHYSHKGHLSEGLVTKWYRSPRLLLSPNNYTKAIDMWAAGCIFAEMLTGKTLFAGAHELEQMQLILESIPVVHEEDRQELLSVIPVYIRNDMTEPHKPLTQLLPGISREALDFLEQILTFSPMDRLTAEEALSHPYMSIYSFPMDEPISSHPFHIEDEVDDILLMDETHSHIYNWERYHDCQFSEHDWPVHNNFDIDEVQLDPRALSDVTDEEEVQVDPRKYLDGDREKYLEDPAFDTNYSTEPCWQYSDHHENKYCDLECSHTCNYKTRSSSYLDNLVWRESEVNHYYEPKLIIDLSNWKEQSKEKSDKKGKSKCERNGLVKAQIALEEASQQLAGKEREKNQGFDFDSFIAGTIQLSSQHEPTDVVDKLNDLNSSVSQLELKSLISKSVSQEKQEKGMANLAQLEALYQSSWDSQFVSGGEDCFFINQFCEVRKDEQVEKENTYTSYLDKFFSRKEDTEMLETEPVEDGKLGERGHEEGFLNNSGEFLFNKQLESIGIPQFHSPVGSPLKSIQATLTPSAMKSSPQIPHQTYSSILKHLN

For `Cc1cccc(-c2ccc(-c3cc4cnc(Nc5ccc(C)c(O)c5)nc4n(CCCCN)c3=O)c(Cl)c2)n1` [compound 32, 8-(4-Aminobutyl)-6-(2-chloro-4-(6-methylpyridin-2-yl)phenyl)-2-((3-hydroxy-4-methylphenyl)amino)pyrido[2,3-d]pyrimidin-7(8H)-one], the “ΔTm 32” value at BMPR2 is -0.4 °C; at FGFR1, 2.0 °C; at MARK4, 9.9 °C; on FGFR2 it was 4.2 °C; on Erk3, 1.0 °C; at MAP2K6, 8.9 °C. Further, the “ΔTm 32” value on MST1 came to 1.6 °C.

Consider `Cc1cccc(-c2ccc(-c3cc4cnc(Nc5ccc(O)cc5)nc4n(CCCCN)c3=O)c(Cl)c2)n1` [compound 31, 8-(4-Aminobutyl)-6-(2-chloro-4-(6-methylpyridin-2-yl)phenyl)-2-((4-hydroxyphenyl)amino) pyrido[2,3-d]pyrimidin-7(8H)-one], for which the “ΔTm 31” value was 1.0 °C at BMPR2; 1.5 °C on FGFR1; 10.4 °C at MARK4; 3.9 °C on FGFR2; 1.2 °C at Erk3; 9.4 °C at MAP2K6. For the same molecule, on MST1, the “ΔTm 31” value turned out to be 2.0 °C.

For `Cc1cccc(-c2ccc(-c3cc4cnc(Nc5cc(C(F)(F)F)ccc5C)nc4n(CCCCN)c3=O)c(Cl)c2)n1` [compound 28, 8-(4-Aminobutyl)-6-(2-chloro-4-(6-methylpyridin-2-yl)phenyl)-2-((2-methyl-5-(trifluoromethyl)phenyl)amino)pyrido[2,3-d]pyrimidin-7(8H)-one], the “ΔTm 28” value at BMPR2 was -0.1 °C; on FGFR1, 1.1 °C; at MARK4 it was 2.2 °C; at FGFR2, 3.8 °C; on Erk3 it was 0.7 °C; at MAP2K6 it was 7.5 °C. Also, the “ΔTm 28” value at MST1 is -1.6 °C.

On to `Cc1cccc(-c2ccc(-c3cc4cnc(NCCCN5CCNCC5)nc4n(CCCCN)c3=O)c(Cl)c2)n1` [compound 29, 8-(4-Aminobutyl)-6-(2-chloro-4-(6-methylpyridin-2-yl)phenyl)-2-((3-(piperazin-1-yl)propyl)amino)pyrido[2,3-d]pyrimidin-7(8H)-one], for which the “ΔTm 29” value was 0.0 °C on BMPR2; 0.7 °C on FGFR1; 4.8 °C at MARK4; 1.7 °C at FGFR2; 0.3 °C at Erk3; 1.9 °C on MAP2K6. In addition, the “ΔTm 29” value at MST1 was -0.5 °C.

In the case of `Cc1cccc(-c2ccc(-c3cc4cnc(Nc5ccc(CCCO)cc5)nc4n(CCCCN)c3=O)c(Cl)c2)n1` [compound 30, 8-(4-Aminobutyl)-6-(2-chloro-4-(6-methylpyridin-2-yl)phenyl)-2-((4-(3-hydroxypropyl)phenyl)amino)pyrido[2,3-d]pyrimidin-7(8H)-one], the “ΔTm 30” value was -0.2 °C on BMPR2; 1.0 °C at FGFR1; 9.5 °C at MARK4; 3.9 °C at FGFR2; 1.1 °C on Erk3; 9.4 °C on MAP2K6. Also, the “ΔTm 30” value on MST1 came out at 1.7 °C.

For the molecule `Cc1cccc(-c2ccc(-c3cc4cnc(NCCCN5CCCC5=O)nc4n(CCCCN)c3=O)c(Cl)c2)n1` [compound 27, MR30], the “ΔTm MR30 (27)” value is -0.1 °C on BMPR2; 0.2 °C at FGFR1; 3.8 °C at MARK4; 1.0 °C at FGFR2; 0.5 °C at Erk3; 4.1 °C at MAP2K6. On MST1, the “ΔTm MR30 (27)” value is -1.0 °C.
